Where “and” joins values, the source holds several entries; their conditions need not be identical. Identical values can stand only once. Entries after “also recorded” stand apart in the source; their conditions may differ. Like-named read-outs stand apart in the source and are kept apart here.
Assays:
[1] = molecular target: T1, BuChE (from equine serum) (Equus caballus, UniProt P81908); assay: biochemical; conditions: mean ± SD of three experiments, read-out: BuChE Inhibition (IC50)
T1 construct: BuChE (from equine serum); purchased Sigma Chemical Company (St. Louis, MO, USA); host or cells: equine serum

AChE (from electric eel) = molecular target: T2, AChE (from electric eel) (Electrophorus electricus, UniProt O42275); assay: biochemical
T2 construct: AChE (from electric eel); purchased Sigma Chemical Company (St. Louis, MO, USA)

SY5Y cells = assay: Cytotoxicity in SY5Y cells (MTT); assay type: cell-based
AChE = molecular target: T3, AChE (Electrophorus electricus, UniProt O42275); assay type: biochemical; conditions: for AChE activity after dilution (reversibility): control 100
T3 construct: AChE (from electric eel); purchased Sigma Chemical Company (St. Louis, MO, USA)
Method: The activities of the diluted residual enzymes were measured by Ellman’s modified method.
Reversibility studies were performed using a modified Ellman’s dilution method to measure the activity of the diluted residual enzyme. The AChE/BuChE (0.5 U/mL), ATCI/BTCI (0.01 M) and DTNB (0.01 M) were diluted with phosphate buffer pH = 7.4. […] At the end of incubation, 20 μL of DTNB solution was added to them. […] All the measured results are expressed as the mean ± SEM of the three independent experiments.

COX-2 = COX-2 expression in LPS-stimulated BV2 cells (Western blot); assay type: cell-based; conditions: 1, 2, 4 μM
Method: BV2 cells were seeded into a 6-well plate at a density of 3.0 × 10^5 cells per well. After incubation overnight, the old medium was discarded. Then, the cells were pretreated with various concentrations (1, 2, and 4 μM) of 4h for 1 h and then co-incubated with LPS (1 μg/mL) for 24 h. After incubation was completed, the cells were washed twice with PBS, and 300 μL of cell lysis buffer (RIRA lysis buffer, phosphatase inhibitor, protease inhibitor, and PMSF) was added to each well. The cells were then incubated on ice for 30 min and centrifuged at 12,000 rpm at 4 °C for 30 min to collect the supernatant. The protein content in the supernatant was detected using the BCA protein detection kit (Beyotime, Shanghai, China). Total proteins were separated by 10% SDS-PAGE and then transferred from the gel to a PVDF membrane (Sigma-Aldrich, Shanghai, China). The membranes were blocked in TBST solution containing 5% skimmed milk for 2 h. Next, the membranes were washed three times (TBST) and incubated with primary antibody dilution (Cell Signaling Technologies, Boston, MA, USA) overnight at 4 °C. Then, they were washed another three times (TBST), incubated with the secondary antibody at room temperature for 90 min, and then washed three times with TBST. The blots were visualized by a chemiluminescence imager (Tanon 5200, Shanghai, China).

[2] = Metal chelation by UV–Vis spectroscopy; assay type: physicochemical; conditions: 20 μM 4h, 1 equivalent CuCl2, methanol/water 1/1
Method: In the wavelength range of 200–600 nm, the metal chelating ability of compound 4h was analyzed by UV–Vis spectroscopy. Specifically, compound 4h (dissolved in DMSO) solutions were prepared with a mixture of methanol and deionized water (1/1). Stock solutions of cation salts (10 mM) were prepared with deionized water and then in the presence or absence of ZnCl2, CuCl2, AlCl3, FeSO4, MgCl2, and CaCl2 (20 μM, final concentration), respectively, and incubated with 4h (20 μM, final concentration) for 1 h at room temperature. The final volume of the reaction mixture was 2 mL. The UV absorption of the test substance was recorded in a 1 cm quartz cell.

PC12 cells = assay: Cytotoxicity in PC12 cells (MTT); assay type: cell-based

T3 sequence (O42275 24-633): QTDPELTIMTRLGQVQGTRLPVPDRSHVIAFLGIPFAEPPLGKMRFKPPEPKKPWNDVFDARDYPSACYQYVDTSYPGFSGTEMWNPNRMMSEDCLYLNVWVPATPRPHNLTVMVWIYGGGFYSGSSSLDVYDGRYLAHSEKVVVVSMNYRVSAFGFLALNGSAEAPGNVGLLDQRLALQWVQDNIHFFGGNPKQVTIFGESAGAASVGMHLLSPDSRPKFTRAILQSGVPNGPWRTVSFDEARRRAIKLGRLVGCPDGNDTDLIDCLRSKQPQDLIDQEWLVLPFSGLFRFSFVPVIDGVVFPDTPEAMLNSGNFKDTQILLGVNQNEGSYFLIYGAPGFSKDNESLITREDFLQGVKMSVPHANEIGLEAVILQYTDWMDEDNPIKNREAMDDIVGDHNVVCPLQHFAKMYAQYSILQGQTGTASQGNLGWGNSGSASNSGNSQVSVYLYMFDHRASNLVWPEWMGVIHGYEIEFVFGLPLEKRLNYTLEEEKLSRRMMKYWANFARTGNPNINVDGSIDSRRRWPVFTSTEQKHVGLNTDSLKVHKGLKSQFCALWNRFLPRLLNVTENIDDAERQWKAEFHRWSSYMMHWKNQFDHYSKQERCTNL
T2 sequence (O42275 24-633): as above
T1 sequence (P81908 whole entry): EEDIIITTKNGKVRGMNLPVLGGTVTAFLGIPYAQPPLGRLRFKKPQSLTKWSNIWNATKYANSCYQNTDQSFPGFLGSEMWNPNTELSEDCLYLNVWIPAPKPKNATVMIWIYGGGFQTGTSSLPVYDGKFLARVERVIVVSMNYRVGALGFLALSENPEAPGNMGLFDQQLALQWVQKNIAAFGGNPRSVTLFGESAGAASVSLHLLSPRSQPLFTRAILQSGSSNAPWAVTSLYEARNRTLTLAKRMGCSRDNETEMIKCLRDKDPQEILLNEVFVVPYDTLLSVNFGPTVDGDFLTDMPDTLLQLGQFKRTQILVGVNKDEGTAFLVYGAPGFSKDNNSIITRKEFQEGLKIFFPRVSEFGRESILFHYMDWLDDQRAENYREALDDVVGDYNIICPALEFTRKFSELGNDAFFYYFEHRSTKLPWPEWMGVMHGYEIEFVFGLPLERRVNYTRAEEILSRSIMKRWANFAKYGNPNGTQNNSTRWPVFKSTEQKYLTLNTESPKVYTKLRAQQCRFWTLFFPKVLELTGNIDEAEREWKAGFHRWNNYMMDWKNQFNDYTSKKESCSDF

O=C1c2cc(NS(=O)(=O)c3ccccc3F)ccc2-n2c1nc1ccccc1c2=O [4h]
IC50 [1]: 6.11 ± 0.15 µM
IC50 (AChE (from electric eel); AChE from electric eel, mean ± SD of three experiments, read-out: AChE Inhibition (IC50)): 0.13 ± 0.04 µM
Selective Index, IC50 (BChE)/IC50 (AChE) (AChE (from electric eel); AChE selectivity index): 47
Cell Viability (% of Control) (SY5Y cells; 30 μM): 97.84 ± 1.24 % of control
Cell Viability (% of Control) (SY5Y cells; 50 μM): 91.33 ± 1.48 % of control
Reversibility of AChE inhibition (AChE; dilution method): reversible inhibitor
AChE activity after dilution (reversibility) (AChE; final inhibitor 0.1 × IC50 after 100-fold dilution): 87.2 ± 0.92
AChE activity after dilution (reversibility) (AChE; final inhibitor 1 × IC50 after 100-fold dilution): 72.3 ± 1.03
COX-2 expression (COX-2): significantly decreased the expression of COX-2 and iNOS
Metal chelating ability (UV–Vis) [2]: maximum absorption intensity at 261 nm was markedly reduced; also recorded: can chelate Cu^2+
Cell Viability (% of Control) (PC12 cells; compound 30 μM, 30 µM): 99.62 ± 0.94 % of Control and 99.6 ± 0.9 % of Control
Cell Viability (% of Control) (PC12 cells; compound 50 μM, 50 µM): 99.21 ± 1.57 % of Control and 99.2 ± 1.5 % of Control
